Values joined by “and” are separate entries in the source; they are usually repeats but may differ in a detail not shown here. Identical values can stand only once. Values belong to the compound of their own block, whether it stands above or below them.
Test system: 324938-238-R-J1-PDC complex spheroid growth, % test/control
Test: Anticancer human tumor 324938-238-R-J1-PDC patient-derived bladder carcinoma cell line growth inhibition [AhR]
Conditions: for viability, T/C: stronger effect = lower value
Method in brief: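 Complex tumor spheroids co-cultured with HUVEC and human MSC stroma; AhR antagonists tested in combination with standard-of-care and investigational agents. Top concentration at or near clinical Cmax (else 10 microM), half-log dilutions; growth expressed as percent test/control.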

[1] = curve of first compound, second compound 0.1 µM
[2] = curve of first compound, second compound 0.316 µM
[3] = curve of first compound, second compound 1 µM
[4] = curve of first compound, second compound 3.16 µM
[5] = curve of first compound, second compound 10 µM
[6] = second compound 0.1 µM, first compound 0.00316 µM
[7] = second compound 0.1 µM, first compound 0.01 µM
[8] = second compound 0.1 µM, first compound 0.0316 µM
[9] = second compound 0.1 µM, first compound 0.1 µM
[10] = second compound 0.316 µM, first compound 0.00316 µM
[11] = second compound 0.316 µM, first compound 0.01 µM
[12] = second compound 0.316 µM, first compound 0.0316 µM
[13] = second compound 0.316 µM, first compound 0.1 µM
[14] = second compound 1 µM, first compound 0.00316 µM
[15] = second compound 1 µM, first compound 0.01 µM
[16] = second compound 1 µM, first compound 0.0316 µM
[17] = second compound 1 µM, first compound 0.1 µM
[18] = second compound 3.16 µM, first compound 0.00316 µM
[19] = second compound 3.16 µM, first compound 0.01 µM
[20] = second compound 3.16 µM, first compound 0.0316 µM
[21] = second compound 3.16 µM, first compound 0.1 µM
[22] = second compound 10 µM, first compound 0.00316 µM
[23] = second compound 10 µM, first compound 0.01 µM
[24] = second compound 10 µM, first compound 0.0316 µM
[25] = second compound 10 µM, first compound 0.1 µM
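Further: spheroids exposed to agents for seven days before viability read.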

IC50 (curve of compound): > 10 µM
SMILES: CC1(C)CCC(CN2CCN(c3ccc(C(=O)NS(=O)(=O)c4ccc(NCC5CCOCC5)c([N+](=O)[O-])c4)c(Oc4cnc5[nH]ccc5c4)c3)CC2)=C(c2ccc(Cl)cc2)C1
viability, T/C (compound 0.0316 µM): 87.5% and 102% and 105%
viability, T/C (compound 0.1 µM): 125% and 98.4% and 101%
viability, T/C (compound 0.316 µM): 93.4% and 103% and 109%
viability, T/C (compound 1 µM): 82.8% and 94.3% and 101%
viability, T/C (compound 3.16 µM): 104% and 90.7% and 87.7%
viability, T/C (compound 10 µM): 114% and 59.1% and 52.6%

IC50 [1]: > 1 µM
IC50 [2]: > 1 µM
IC50 [3]: > 1 µM
IC50 [4]: > 1 µM
IC50 [5]: > 1 µM
SMILES: Nc1ncn(C2CC(O)C(CO)O2)c(=O)n1 (stereo unspecified) + Cc1ccccc1N=Nc1ccc(NC(=O)c2ccnn2C)c(C)c1
viability, T/C [6]: 90.1%
viability, T/C [7]: 94.7%
viability, T/C [8]: 97.8%
viability, T/C [9]: 83.3%
viability, T/C (second compound 0.1 µM, first compound 0.316 µM): 71.2%
viability, T/C (second compound 0.1 µM, first compound 1 µM): 65.3%
viability, T/C [10]: 81.9%
viability, T/C [11]: 87.9%
viability, T/C [12]: 89.4%
viability, T/C [13]: 78.5%
viability, T/C (second compound 0.316 µM, first compound 0.316 µM): 69.7%
viability, T/C (second compound 0.316 µM, first compound 1 µM): 64.8%
viability, T/C [14]: 85.3%
viability, T/C [15]: 83%
viability, T/C [16]: 89.5%
viability, T/C [17]: 74.7%
viability, T/C (second compound 1 µM, first compound 0.316 µM): 82.3%
viability, T/C (second compound 1 µM, first compound 1 µM): 62%
viability, T/C [18]: 74.9%
viability, T/C [19]: 78.7%
viability, T/C [20]: 77.2%
viability, T/C [21]: 68.7%
viability, T/C (second compound 3.16 µM, first compound 0.316 µM): 70%
viability, T/C (second compound 3.16 µM, first compound 1 µM): 60.9%
viability, T/C [22]: 77.9%
viability, T/C [23]: 76.1%
viability, T/C [24]: 78.6%
viability, T/C [25]: 73.6%
viability, T/C (second compound 10 µM, first compound 0.316 µM): 73.4%
viability, T/C (second compound 10 µM, first compound 1 µM): 60.7%

IC50 (compound alone, run of 07/12/2022): > 10 µM
SMILES: CC(CO)NC(=O)c1cc(-c2ccc(Cl)cc2)nn(-c2cnn(C)c2)c1=O (stereo unspecified)
viability, T/C (compound 0.316 µM): 91% [middle of 21 runs]
viability, T/C (compound 1 µM): 82.4% [middle of 21 runs]
viability, T/C (compound 10 µM): 68.8% [middle of 19 runs]

IC50 [1]: > 0.1 µM
IC50 [2]: > 0.1 µM
IC50 [3]: > 0.1 µM
IC50 [4]: > 0.1 µM
IC50 [5]: < 0.000316 µM
SMILES: Cn1ncnc1C1c2n[nH]c(=O)c3cc(F)cc(c23)NC1c1ccc(F)cc1 (stereo unspecified) + Cc1cncc(-c2nc(NCCc3c[nH]c4ccccc34)c3ncn(C(C)C)c3n2)c1
viability, T/C (second compound 0.1 µM, first compound 0.000316 µM): 92.1%
viability, T/C (second compound 0.1 µM, first compound 0.001 µM): 110%
viability, T/C [6]: 105%
viability, T/C [7]: 94.5%
viability, T/C [8]: 120%
viability, T/C [9]: 86.2%
viability, T/C (second compound 0.316 µM, first compound 0.000316 µM): 108%
viability, T/C (second compound 0.316 µM, first compound 0.001 µM): 113%
viability, T/C [10]: 138%
viability, T/C [11]: 81.6%
viability, T/C [12]: 112%
viability, T/C [13]: 105%
viability, T/C (second compound 1 µM, first compound 0.000316 µM): 78.9%
viability, T/C (second compound 1 µM, first compound 0.001 µM): 142%
viability, T/C [14]: 116%
viability, T/C [15]: 112%
viability, T/C [16]: 106%
viability, T/C [17]: 134%
viability, T/C (second compound 3.16 µM, first compound 0.000316 µM): 93.7%
viability, T/C (second compound 3.16 µM, first compound 0.001 µM): 112%
viability, T/C [18]: 92.6%
viability, T/C [19]: 98.1%
viability, T/C [20]: 94.2%
viability, T/C [21]: 99.3%
viability, T/C (second compound 10 µM, first compound 0.000316 µM): 9.29%
viability, T/C (second compound 10 µM, first compound 0.001 µM): 12.6%
viability, T/C [22]: 9.9%
viability, T/C [23]: 13%
viability, T/C [24]: 9.12%
viability, T/C [25]: 22.1%

IC50 [1]: 0.123 µM
IC50 [2]: 0.138 µM
IC50 [3]: 0.135 µM
IC50 [4]: 0.0962 µM
IC50 [5]: 0.125 µM
SMILES: O=C(C=Cn1cnc(-c2cc(C(F)(F)F)cc(C(F)(F)F)c2)n1)NNc1cnccn1 + CC(CO)NC(=O)c1cc(-c2ccc(Cl)cc2)nn(-c2cnn(C)c2)c1=O
viability, T/C (second compound 0.1 µM, first compound 0.00949 µM): 83.2%
viability, T/C (second compound 0.1 µM, first compound 0.03 µM): 77.4%
viability, T/C (second compound 0.1 µM, first compound 0.0949 µM): 51.8%
viability, T/C (second compound 0.1 µM, first compound 0.3 µM): 34.9%
viability, T/C (second compound 0.1 µM, first compound 0.949 µM): 17.8%
viability, T/C (second compound 0.1 µM, first compound 3 µM): 11.8%
viability, T/C (second compound 0.316 µM, first compound 0.00949 µM): 75.7%
viability, T/C (second compound 0.316 µM, first compound 0.03 µM): 87.5%
viability, T/C (second compound 0.316 µM, first compound 0.0949 µM): 53.8%
viability, T/C (second compound 0.316 µM, first compound 0.3 µM): 33.5%
viability, T/C (second compound 0.316 µM, first compound 0.949 µM): 19.8%
viability, T/C (second compound 0.316 µM, first compound 3 µM): 12.6%
viability, T/C (second compound 1 µM, first compound 0.00949 µM): 82.3%
viability, T/C (second compound 1 µM, first compound 0.03 µM): 76.4%
viability, T/C (second compound 1 µM, first compound 0.0949 µM): 58%
viability, T/C (second compound 1 µM, first compound 0.3 µM): 31.1%
viability, T/C (second compound 1 µM, first compound 0.949 µM): 23.1%
viability, T/C (second compound 1 µM, first compound 3 µM): 14.2%
viability, T/C (second compound 3.16 µM, first compound 0.00949 µM): 69.1%
viability, T/C (second compound 3.16 µM, first compound 0.03 µM): 65%
viability, T/C (second compound 3.16 µM, first compound 0.0949 µM): 50.7%
viability, T/C (second compound 3.16 µM, first compound 0.3 µM): 27.2%
viability, T/C (second compound 3.16 µM, first compound 0.949 µM): 19%
viability, T/C (second compound 3.16 µM, first compound 3 µM): 12.8%
viability, T/C (second compound 10 µM, first compound 0.00949 µM): 62%
viability, T/C (second compound 10 µM, first compound 0.03 µM): 61.8%
viability, T/C (second compound 10 µM, first compound 0.0949 µM): 57.7%
viability, T/C (second compound 10 µM, first compound 0.3 µM): 31.3%
viability, T/C (second compound 10 µM, first compound 0.949 µM): 24.8%
viability, T/C (second compound 10 µM, first compound 3 µM): 11.4%

Reference: PubChem BioAssay AID1918995 (Molecular Pharmacology Branch, DTP, NCI, 2023)
